The assay relates to HA 11 A-beta (1-40) accumulation in HEK 293/HA 11 beta-APP 695 cells. Put plainly: Accumulation of HA 11 A-beta (1-40) in HEK 293/HA 11 beta-APP 695 conditioned medium, position 40-specific ELISA. In kind it is cell-based, human. Conditions: 96-well, serum-free medium with 0.2% BSA, 16 hours, dose-response, versus DMSO vehicle. How it is done: HEK 293/HA 11 beta-APP 695 cells were plated at confluence in 96-well plates and the indicated dose-response of either MDL 28170 (panel A), or Brefeldin A (panel B) was added for 16 hours. The accumulation of HA 11 A-beta (1-40) (position 40-specific antibody; QCB) was determined as in FIG. 5. Results are expressed as percentage inhibition of HA 11 A-beta (1-40) accumulation in comparison to wells incubated with vehicle (dimethyl sulfoxide, DMSO) alone.
Panel A: Immulon 2 microtiter wells were coated with mAB anti-HA 11 (5 μg/mL in PBS, 4° C., overnight), washed with PBS and blocked with 5% BSA in PBS. […] The change of absorbance of duplicate wells was determined at […] and results corrected for binding of antibodies to wells in the absence of peptide. […]
HEK 293/HA 11 beta-APP 695 cells were plated in 96-well tissue culture dishes in serum-free medium containing 0.2% BSA (1×10^6 cells/cm^2). The conditioned medium was harvested at the indicated times and analyzed for the presence of HA 11 A-beta position 40, as in example 4. HA 11 A-beta polypeptides ending at position 42 were detected in a similar ELISA system. […] Bound HA 11 A-beta 42 was detected with biotin-labeled mAB 108 (specific for the neo-epitope generated upon cleavage of beta-APP by […]), followed by HRP-labeled streptavidin and TMB substrate. […]

On to MDL 28170, for which the “HA 11 A-beta accumulation in conditioned medium” value is reported as “decrease in the HA 11 A-beta accumulation”.

Regarding `C[C@H]1CCC/C=C/[C@@H]2C[C@H](O)C[C@H]2[C@H](O)/C=C/C(=O)O1` [brefeldin A, Brefeldin A], the “HA 11 A-beta accumulation in conditioned medium” value was “decrease in the HA 11 A-beta accumulation”.

For the origin of these results see patent publication US7049138B2, “Epitope-tagged beta-amyloid precursor protein and DNA encoding the same” (Bristol-Myers Squibb Company, priority 1999, dated 2006).
